Laboratory results: publication PMC10148624, “Discovery of diarylpyrimidine derivatives bearing piperazine sulfonyl as potent HIV-1 nonnucleoside reverse transcriptase inhibitors” (Communications Chemistry, 2023)
In brackets after ≈: the same amount, converted by molar mass. Several values for one entry are separate records, joined by “and”; a condition that tells them apart may be missing. Equal values may be shown once. Read-outs that look alike come from different tables or passages of the source.

Experiments:
MT-4 cells = conditions: mock-infected MT-4 cells, MTT method, same laboratory; cited from earlier work
HIV-1 WT (IIIB) [1] = conditions: cited from earlier work
[2] = system: HIV-1 K103N/Y181C double mutant (RES056); conditions: cited from earlier work
HIV-1 K103N = test: Anti-HIV-1 activity against K103N mutant strain, MTT method in MT-4 cells; format: cell-based; conditions: Human immunodeficiency virus 1, MT4, read-out: EC50 K103N
Source text: (§1) According to the anti-HIV-1(WT) results, the promising compounds 18a(1–5), 18b(1–5) and 18c1 were chosen to further evaluate their inhibitory potency against the prevalent HIV-1 mutations, including L100I, K103N, Y181C, Y188L, E138K, and F227L/V106A. […]. page 20:
(§2) or mock-infected wells of the microtiter tray. Mock-infected cells were used to evaluate
(§3) supernatant was discarded.
(§4) Five days after infection,
(§5) 4 cells by 50%. […]

HIV-1 L100I = test: microbe, parasite or virus in culture; format: cell-based; conditions: Human immunodeficiency virus 1, MT4, read-out: EC50 L100I
Procedure: (§6) compounds were made directly in flat-bottomed 96-well microtiter trays by adding 100 μL medium to the 25 μL stock solution and transferring 25 μL of this solution to another well that contained 100 μL medium using a Biomek 3000 robot (Beckman Instruments, Fullerton, CA). Untreated control HIV- and mock-infected cell samples were included for each sample. HIV-1 WT strain (IIIB), HIV-1 drug-resistant strains including […]
(§7) (50% cell culture infectious dose) or culture medium was added to either the infected or mock-infected wells of the microtiter tray. Mock-infected cells were used to evaluate the effect of test compounds on uninfected cells in order to assess its cytotoxicity.
(§8) Exponentially growing MT-4 cells were centrifuged for 5 min at 1000 rpm and the supernatant was discarded.
(§9) 50 μL volumes were transferred to the microtiter tray wells. Five days after infection, the viability of mock- and HIV-infected cells was examined spectrophotometrically by […]
(§10) concentration of the test compound that reduced the viability of the mock-infected MT- […]

HIV-1 E138K = test: microbe, parasite or virus in culture; format: cell-based; conditions: Human immunodeficiency virus 1, MT4, read-out: EC50 E138K
Procedure: as §6, §7, §8, §9, §10

in vivo = conditions: male, Sprague-Dawley, rat, plasma
Procedure: (§15) SpragueDawley (SD) rats (180−200 g) were randomly divided into two groups to
(§16) receive oral administration (10 mg/kg) or intravenous (2 mg/kg). A solution of
(§17) compound 18b1 was prepared by dissolving in a mixture of polyethylene glycol (PEG)
(§18) 400/normal saline (70/30, V/V) before the experiment. Blood samples (200 μL of blood
(§19) each times) of the intravenous group were collected from the sinus jugular into
(§20) h after dosing, and blood samples (200 μL of blood each times) of the oral
(§21) used to determine the concentration of 18b1 in plasma. Briefly, 50 μL of plasma was
(§22) and a 20 μL aliquot was injected for LCMS/MS analysis. Standard curves for 18b1 in
(§23) blood were generated by the addition of S10 various concentrations of 18b1 together

HIV-1 WT (IIIB) [3] = test: microbe, parasite or virus in culture; format: cell-based; conditions: for EC50: Human immunodeficiency virus 1, IIIB, MT4, read-out: EC50 IIIB; for SI IIIB: selectivity index, ratio of CC50/EC50
Procedure: (§11) The biological results were determined as EC50 (anti-HIV potency), CC50 (cytotoxicity) and SI (selectivity index, the ratio of CC50/EC50). […]
as §6, §7, §8, §9, §10

[4] = system: HIV-1 K103N/Y181C double mutant (RES056); test: microbe, parasite or virus in culture; format: cell-based; conditions: for EC50: Human immunodeficiency virus 1, MT4, read-out: EC50 RES056; for SI RES056: selectivity index, ratio of CC50/EC50
Procedure: as §11, §6, §7, §8, §9, §10

CYP2D6 = CYP2D6 (Homo sapiens, UniProt P10635); test: in vitro; conditions: human, microsomes, IC50 CYP2D6
Procedure: Fig. S3 Decomposition of the binding free energy (per-residue) into contributions from electrostatic energy, vdw energy, polar solvation energy, and non-polar solvation energy. a K103N-18b1. b […]
(§12) Section 7. Water solubility measurements
Water solubility was measured in phosphate buffer at pH 7.0 by using an HPLC-UV method.17 Compounds were initially dissolved in DMSO at 10 mg/mL 10 μL of this stock solution was spiked into purified water (1 mL) with the final DMSO concentration being 1%. The mixture was ultrasonic for 2 h at room temperature and restored at room temperature overnight. The saturated solution was filtrated through a filter membrane (pore size = 0.22 μm) and transferred to other Eppendorf tubes for analysis by HPLC-UV. The sample was performed in triplicate. For quantification, a model LC-20AT HPLC-UV (SHIMADZU) system was used with an Inertsil ® ODS-SP-C18 column (150 mm × 4.6 mm, 5 μm) and MeOH/water as eluant. The flow rate was 1.0 mL/min, and injection volume was 20 μL. Aqueous concentration was determined by comparison of the peak area of the saturated solution with a standard curve plotted peak area versus known concentrations, which were prepared by solutions in MeOH at 200, […]
(§13) Section 8. CYP enzyme inhibition assay […]
Section 9. Pharmacokinetics studies […]
approval from the Animal Ethical and Welfare Committee (AEWC). Ten male […]
Blood samples (200 μL of blood
Briefly, 50 μL of plasma was […]
tube, which was centrifuged at 3000g for 10 min. The supernatant layer was collected […]
Standard curves for 18b1 in […]
with an internal standard to blank plasma. Then all samples were quantified with an […]

physchem = format: physicochemical; conditions: pH 7, aqueous buffer, kinetic from dmso stock
Procedure: as §12
temperature overnight. The saturated solution was filtrated through a filter membrane
UV. The sample was performed in triplicate. For quantification, a model LC-20AT
The flow rate was 1.0 mL/min,
and injection volume was 20 μL. Aqueous concentration was determined by
Section 8. CYP enzyme inhibition assay

HIV-1 Y181C = test: Anti-HIV-1 activity against Y181C mutant strain, MTT method in MT-4 cells; format: cell-based
Source text: as §2, §3, §4, §5

[5] = In vivo pharmacokinetics in Sprague-Dawley rats; conditions: SD rat, 2.0 mg/kg i.v., mean ± SD, n = 3
Procedure: as §15, §16, §17, §18, §19, §20, §21, §22, §23

CYP2C9 = CYP2C9 (Homo sapiens, UniProt P11712); test: in vitro; conditions: human, microsomes
Source text: as §13
(§14) Agilent 1200 LC/MSD (Agilent, USA).

CYP2C19 = CYP2C19 (Homo sapiens, UniProt P33261); test: in vitro; conditions: human, microsomes
Source text: as §13, §14

HIV-1 F227L/V106A = test: Anti-HIV-1 activity against F227L/V106A mutant strain, MTT method in MT-4 cells; format: cell-based; conditions: for EC50: Human immunodeficiency virus 1, MT4, read-out: EC50 F227L/V106A
Source text: as §1, §2, §3, §4, §5

WT HIV-1 RT = biological target: T1, WT HIV-1 RT (Human immunodeficiency virus type 1 group M subtype B, UniProt P04585); test: biochemical; conditions: read-out: IC50 against WT HIV-1 RT; inhibition of biotin deoxyuridine triphosphate incorporation into HIV-1 IIIB RT by 50%, mean ± SD, n = 2
T1 construct: purchased Roche
Procedure: Section 4. HIV-1 RT inhibition assays
A reverse transcriptase (RT) assay kit produced by Roche was selected for the RT inhibition assay.3 All the reagents for performing the RT reaction came with the kit and the ELSIA procedures for RT inhibition assay was carried out following the description in the kit protocol. Briefly, the reaction mixture containing template/primer complex, viral nucleotides (dNTPs) and RT in the incubation buffer with or without inhibitors was incubated for 1 h at 37 °C . After that, the reaction mixture was transferred to a streptavidine coated microtiter plate and incubated for another 1 h at 37 °C to make sure retranscriptional cDNA chain that consisted biotin labeled dNTPs bound to streptavidine. Then unbound dNTPs were removed using washing buffer and anti-DIG-POD working solution was added. After incubation for 1 h at 37 °C , the DIG-labeled dNTPs incorporated in cDNA were bound to the anti-DIG-POD antibody. The unbound

HIV-1 Y188L = test: Anti-HIV-1 activity against Y188L mutant strain, MTT method in MT-4 cells; format: cell-based; conditions: Human immunodeficiency virus 1, MT4, read-out: EC50 Y188L
Source text: as §1, §2, §3, §4, §5

in vitro = conditions: human
Procedure: as §11, §6, §7, §8, §9, §10

[6] = MT-4 cells, MTT method, same laboratory, same method

CYP2D6, sequence (P10635 whole entry): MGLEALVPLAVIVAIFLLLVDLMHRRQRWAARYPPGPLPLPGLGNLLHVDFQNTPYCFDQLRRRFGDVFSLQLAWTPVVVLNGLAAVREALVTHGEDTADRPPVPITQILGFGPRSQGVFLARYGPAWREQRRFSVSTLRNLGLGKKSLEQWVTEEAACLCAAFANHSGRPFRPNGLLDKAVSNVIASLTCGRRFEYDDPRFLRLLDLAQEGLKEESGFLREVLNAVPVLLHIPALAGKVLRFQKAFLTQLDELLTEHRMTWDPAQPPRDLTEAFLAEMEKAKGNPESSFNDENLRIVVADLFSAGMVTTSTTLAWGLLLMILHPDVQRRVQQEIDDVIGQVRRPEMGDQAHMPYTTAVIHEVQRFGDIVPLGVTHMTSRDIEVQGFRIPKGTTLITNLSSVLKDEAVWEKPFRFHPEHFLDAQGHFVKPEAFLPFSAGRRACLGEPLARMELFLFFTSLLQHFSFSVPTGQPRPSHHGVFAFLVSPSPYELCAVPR
CYP2C19, sequence (P33261 whole entry): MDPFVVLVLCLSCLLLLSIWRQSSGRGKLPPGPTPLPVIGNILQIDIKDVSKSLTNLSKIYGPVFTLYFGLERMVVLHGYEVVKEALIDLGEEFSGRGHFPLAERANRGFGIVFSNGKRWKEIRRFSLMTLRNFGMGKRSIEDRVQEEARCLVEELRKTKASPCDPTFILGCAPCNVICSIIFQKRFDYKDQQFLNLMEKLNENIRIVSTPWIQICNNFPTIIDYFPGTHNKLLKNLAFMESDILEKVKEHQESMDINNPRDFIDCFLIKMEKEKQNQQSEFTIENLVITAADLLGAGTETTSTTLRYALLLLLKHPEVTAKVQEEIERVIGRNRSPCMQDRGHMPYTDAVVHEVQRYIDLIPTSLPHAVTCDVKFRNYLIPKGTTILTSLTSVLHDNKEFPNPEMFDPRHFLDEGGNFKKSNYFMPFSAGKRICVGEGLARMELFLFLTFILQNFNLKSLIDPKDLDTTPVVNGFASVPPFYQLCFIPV
CYP2C9, sequence (P11712 whole entry): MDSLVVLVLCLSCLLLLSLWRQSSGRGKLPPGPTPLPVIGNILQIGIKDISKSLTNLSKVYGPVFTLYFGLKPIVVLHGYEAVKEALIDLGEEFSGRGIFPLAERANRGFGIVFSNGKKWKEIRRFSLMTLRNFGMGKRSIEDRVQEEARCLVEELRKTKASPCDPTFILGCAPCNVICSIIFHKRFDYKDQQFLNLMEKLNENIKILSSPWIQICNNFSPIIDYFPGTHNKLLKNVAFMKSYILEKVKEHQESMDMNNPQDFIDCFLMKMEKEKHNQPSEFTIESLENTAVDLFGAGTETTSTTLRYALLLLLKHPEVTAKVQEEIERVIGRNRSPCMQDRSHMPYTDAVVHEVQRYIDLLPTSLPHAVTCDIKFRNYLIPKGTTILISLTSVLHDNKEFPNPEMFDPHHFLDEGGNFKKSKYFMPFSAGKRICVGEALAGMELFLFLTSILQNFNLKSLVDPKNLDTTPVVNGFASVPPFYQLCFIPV

With Cn1c(Cn2ccc(C(F)(F)F)c(Oc3cc(Cl)cc(C#N)c3)c2=O)n[nH]c1=O [DOR, doravirine] as the compound, how does the CC50 (MT-4 cells) read?
The CC50 was > 294000 nM.

And the EC50 (HIV-1 WT (IIIB) [1]; [6])?
The EC50 was 13 ± 4 nM.

What about the “SI IIIB” value (HIV-1 WT (IIIB) [1]; ratio of CC50/EC50) of the same compound?
Its value is >21,940.

What about the EC50 [2, 6] of the same compound?
The EC50 was 15 ± 6 nM.

And the “SI RES056” value ([2]; ratio of CC50/EC50)?
Its value is >20136.

With Cc1cc(/C=C/C#N)cc(C)c1Oc1ccnc(Nc2ccc(N3CCN(S(C)(=O)=O)CC3)c(C#N)c2)n1 [Compound 18b1] as the compound, how does the EC50 (HIV-1 K103N) read?
The EC50 was 1.7 ± 0.32 nM.

And the EC50 (HIV-1 L100I)?
Its EC50 is 3.7 ± 0.62 nM.

And the EC50 (HIV-1 E138K)?
Its EC50 is 6.4 ± 0.54 nM.

And the AUC(0-inf) (in vivo; iv, 2 mg/kg)?
Its AUC(0-inf) is 792 ± 74.9 ng·h/mL.

And the AUC(0-t) (in vivo; iv, 2 mg/kg)?
Its AUC(0-t) is 785 ± 73.9 ng·h/mL.

What about the Cmax (in vivo; iv, 2 mg/kg) of the same compound?
The Cmax was 1230 ± 96.1 ng/mL.

What about the Tmax (in vivo; iv, 2 mg/kg) of the same compound?
The Tmax was 0.08 h.

What about the clearance (in vivo; iv, 2 mg/kg) of the same compound?
Its clearance is 42.3 mL/min/kg.

What about the half-life (in vivo; iv, 2 mg/kg) of the same compound?
The half-life was 2.42 ± 0.34 h.

What about the bioavailability (in vivo; oral, 10 mg/kg) of the same compound?
Its bioavailability is 1.34%.

What about the AUC(0-inf) (in vivo; po, 10 mg/kg) of the same compound?
Its AUC(0-inf) is 53.2 ± 8.32 ng·h/mL.

And the AUC(0-t) (in vivo; po, 10 mg/kg)?
Its AUC(0-t) is 45.1 ± 12.9 ng·h/mL.

What about the Cmax (in vivo; po, 10 mg/kg) of the same compound?
The Cmax was 16.1 ± 6.59 ng/mL.

What about the Tmax (in vivo; po, 10 mg/kg) of the same compound?
Its Tmax is 3.5 ± 2.78 h.

And the half-life (in vivo; po, 10 mg/kg)?
The half-life was 3.05 ± 1.44 h.

What about the EC50 (HIV-1 WT (IIIB) [3]) of the same compound?
Its EC50 is 1.4 ± 0.19 nM.

And the “SI IIIB” value (HIV-1 WT (IIIB) [3])?
The value was 7171.

And the EC50 [4]?
Its EC50 is 93 ± 19 nM.

What about the “SI RES056” value [4] of the same compound?
Its value is 110.

What about the IC50 at 10 min (CYP2D6) of the same compound?
The IC50 at 10 min was > 10000 nM.

What about the solubility (physchem) of the same compound?
The solubility was 13.5 ± 0.49 µg/mL (≈ 25.4 µM).

And the EC50 (HIV-1 Y181C; Human immunodeficiency virus 1, MT4, read-out: EC50 Y181C, MT-4 cells, MTT method, mean ± SD, n ≥ 4)?
Its EC50 is 6.4 ± 0.67 nM.

What about the “fold potency enhancement over ETR” value (HIV-1 Y181C; Y181C strain, ratio of EC50) of the same compound?
Its value is 2.8 fold.

What about the V [5] of the same compound?
Its V is 8.81 L/kg and 8.81 ± 0.72 L/kg.

And the IC50 at 10 min (CYP2C9)?
The IC50 at 10 min was 5300 nM.

And the IC50 at 10 min (CYP2C19)?
The IC50 at 10 min was 8000 nM.

What about the “fold more potent than lead compound BH-11c” value (HIV-1 F227L/V106A; F227L/V106A strain, ratio of EC50) of the same compound?
The value was ~ 20 fold.

What about the EC50 (HIV-1 F227L/V106A) of the same compound?
Its EC50 is 9.9 ± 1.6 nM.

And the IC50 (WT HIV-1 RT)?
Its IC50 is 93 ± 17 nM.

And the EC50 (HIV-1 Y188L)?
Its EC50 is 740 ± 210 nM.

And the CC50 at 5 days (in vitro)?
The CC50 at 5 days was 10200 ± 1820 nM.

For Cc1cc(/C=C/C#N)cc(C)c1Oc1ccnc(Nc2ccc(CN3CCN(S(C)(=O)=O)CC3)cc2)n1 [BH-11c], which EC50 (HIV-1 K103N) is on record?
Its EC50 is 3.7 ± 1.6 nM.

What about the EC50 (HIV-1 L100I) of the same compound?
The EC50 was 14 ± 5.3 nM.

What about the EC50 (HIV-1 E138K) of the same compound?
The EC50 was 9.4 ± 5 nM.

What about the EC50 (HIV-1 F227L/V106A) of the same compound?
The EC50 was 210 ± 95 nM.

What about the EC50 (HIV-1 Y188L) of the same compound?
The EC50 was 1320 ± 220 nM.

Which EC50 (HIV-1 WT (IIIB) [3]) does the source give for Cc1cn([C@H]2C[C@H](N=[N+]=[N-])[C@@H](CO)O2)c(=O)[nH]c1=O [AZT, zidovudine] here?
Its EC50 is 32 ± 9.6 nM.

And the “SI IIIB” value (HIV-1 WT (IIIB) [3])?
Its value is >234.

And the EC50 [4]?
The EC50 was 37 ± 11 nM.

And the “SI RES056” value [4]?
The value was >200.

And the CC50 at 5 days (in vitro)?
Its CC50 at 5 days is > 7480 nM.
